This experiment deals with T1, PI3KCD (Homo sapiens, UniProt O00329).
T1 construct: gene PIK3CD
The experiment can be described thus: PI 3-Kinase (human) HTRF enzyme assay with the PI3KCD isoform. The format is biochemical.

T1 sequence (O00329 whole entry): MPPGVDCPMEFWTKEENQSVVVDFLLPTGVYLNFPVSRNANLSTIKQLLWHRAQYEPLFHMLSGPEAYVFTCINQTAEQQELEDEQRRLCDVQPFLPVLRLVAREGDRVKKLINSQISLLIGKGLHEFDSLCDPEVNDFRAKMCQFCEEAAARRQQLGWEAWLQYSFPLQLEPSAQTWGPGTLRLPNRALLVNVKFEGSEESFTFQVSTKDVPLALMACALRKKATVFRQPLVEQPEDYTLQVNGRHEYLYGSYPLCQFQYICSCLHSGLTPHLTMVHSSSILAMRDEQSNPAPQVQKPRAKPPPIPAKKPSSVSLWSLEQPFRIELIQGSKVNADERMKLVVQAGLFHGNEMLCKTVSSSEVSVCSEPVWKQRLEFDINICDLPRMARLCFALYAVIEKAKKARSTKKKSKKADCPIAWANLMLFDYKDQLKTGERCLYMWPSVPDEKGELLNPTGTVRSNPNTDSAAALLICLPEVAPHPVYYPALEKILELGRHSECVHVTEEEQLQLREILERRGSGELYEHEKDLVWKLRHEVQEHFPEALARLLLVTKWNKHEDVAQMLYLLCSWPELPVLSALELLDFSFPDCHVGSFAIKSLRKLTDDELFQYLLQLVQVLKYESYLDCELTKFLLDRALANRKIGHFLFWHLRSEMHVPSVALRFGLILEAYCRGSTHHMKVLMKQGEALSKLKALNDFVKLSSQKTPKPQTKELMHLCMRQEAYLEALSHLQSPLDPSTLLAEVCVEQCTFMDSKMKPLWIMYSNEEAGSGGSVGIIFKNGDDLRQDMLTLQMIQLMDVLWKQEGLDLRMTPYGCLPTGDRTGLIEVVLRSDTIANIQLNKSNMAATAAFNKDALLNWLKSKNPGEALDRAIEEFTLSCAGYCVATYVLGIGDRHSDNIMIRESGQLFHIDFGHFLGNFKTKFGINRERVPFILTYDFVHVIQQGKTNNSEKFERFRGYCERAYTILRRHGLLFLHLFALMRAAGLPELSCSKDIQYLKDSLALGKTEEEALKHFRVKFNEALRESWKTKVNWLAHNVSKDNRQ

Regarding `c1ccc2c(c1)c1ccccc1c1nc3c4ccccc4c4ccccc4c3nc21` [SBL-JP-0004, tetrabenzo[a,c,h,j]phenazine], the IC50 – broadly, the concentration needed to halve the response being measured – is 201 nM.

The values are drawn from publication PMC11671411 (Oncology Research, 2024).
